Reference: patent US20190060384A1, “COMPOSITION FOR TREATMENT OR PREVENTION OF LUNG CANCER AND A METHOD THEREFORE” (priority 2017, published 2019)

Columns and labels:
NCI-H520 tumor mass = assay: NCI-H520 xenograft nude mice: tumor mass histopathology and immunohistochemistry; type: in vivo, athymic nude mice
Excerpt: (1) Anticancer effects: Changes in tumor volume, tumor weight, tumor cell volume in a formed mass, and apoptotic cell percentages, and changes in immunoreactivities of caspase-3, PARP, NT, 4-HNE, CD31, Ki-67, COX-2, iNOS, and TNF-α in the formed mass

[1] = tested on: NCI-H520 cell xenograft nude mice; assay: NCI-H520 xenograft nude mice: immune organ weights and histopathology (spleen, submandibular lymph node); type: in vivo, athymic nude mice
[2] = mouse, in vivo, po
Excerpt: (§1) Day 28; mortality, clinical symptoms, change in body weight, autopsy findings, hematological (14 items; Table 18) and hematochemical (20 items; Table 19) changes, histopathological changes (23 organs: brain cerebrum, cerebellum and bulbar, heart, thymus, lung, testis, epididymis, kidney, adrenal gland, spleen, liver, pancreas, alimentary tract esophagus, fundic portion, pyloric portion, duodenum, jejunum, ileum, cecum, colon and rectum, submandibular lymph node), and changes in content of liver lipid peroxidation and antioxidant defense system glutathione (GSH), and catalase (CAT) and superoxide dismutase (SOD) activities.

NCI-H520 cells = assay: MTT cytotoxicity (cell viability)
Excerpt: Further, in order to observe the effects on tumor-related cachexia, a change in periovarian fat pad weight and a change in serum IL-6 content were observed, the changes in thickness of periovarian fat pad and diameter of adipocytes were each histopathologically observed, and in a tumor mass formed, the immunoreactivities of cleaved caspase-3 and poly(ADPribose) polymerase (PARP) as apoptotic markers, nitrotyrosine (NT) as an inducible nitric oxide synthases (iNOS)-related oxidative stress marker, 4-hydroxynonenal (4-HNE) as a lipid peroxidation marker, CD-31 and Ki-67 as angiogenic and cell proliferation markers, cyclooxygenase-2 (COX-2) as an inflammatory and angiogenic factor, and iNOS and TNF-α as cytokines related to immune activity were each observed by avidin-biotin-peroxidase (ABC)-based immunohistochemical methods.

[3] = mouse, in vivo, po; remark: listed apart in the source
Excerpt: as §1

[4] = tested on: NCI-H520 cell xenograft nude mice; assay: NCI-H520 xenograft nude mice: splenic and peritoneal NK cell activity; type: in vivo, athymic nude mice; conditions: vs tumor xenograft control, 35 days
[5] = tested on: liver lipid peroxidation, GSH, CAT, SOD; conditions: mouse, in vivo, po
Excerpt: as §1

[6] = tested on: NCI-H520 cell xenograft nude mice; assay: NCI-H520 xenograft nude mice: serum IL-6 and IFN-γ contents; type: in vivo, athymic nude mice; conditions: vs tumor xenograft control, 35 days
Excerpt: (3) Effects of suppressing tumor-related cachexia: Changes in body weight, periovarian fat pad weight, and serum IL-6 content and histological change in a periovarian fat pad

[7] = tested on: NCI-H520 cell xenograft nude mice; assay: NCI-H520 xenograft nude mice: splenic cytokine contents (TNF-α, IL-1β, IL-10); type: in vivo, athymic nude mice
[8] = tested on: NCI-H520 cell xenograft nude mice; assay: NCI-H520 xenograft nude mice: tumor-related cachexia (body weight, periovarian fat pad); type: in vivo, athymic nude mice
[9] = tumor mass, oral once daily 35 days
[10] = NCI-H520 xenograft nude mice, oral once daily 35 days
[11] = vs tumor xenograft control, 35 days
[12] = male, ICR (CrljOri:CD1[ICR]), 28 day

Compound: COc1cc2ncnc(Nc3ccc(F)c(Cl)c3)c2cc1OCCCN1CCOCC1 [Gefitinib, gefitinib]
- Immunoreactive cell percentages: Cyclooxygenase-2 (NCI-H520 tumor mass; [9]): 56.48 ± 12.30 %/tumor cells
- Immunoreactive cell percentages: INOS (NCI-H520 tumor mass; [9]): 5.34 ± 1.44 %/tumor cells
- Immunoreactive cell percentages: Ki-67 (NCI-H520 tumor mass; [9]): 45.34 ± 7.63a %/tumor cells
- Immunoreactive cell percentages: Nitrotyrosine (NCI-H520 tumor mass; [9]): 32.93 ± 10.64d %/tumor cells
- Immunoreactive cell percentages: PARP (NCI-H520 tumor mass; [9]): 22.27 ± 10.20d %/tumor cells
- Tumor cell volume (NCI-H520 tumor mass; [9]): 54.48 ± 12.96a %/mm2
- change in proportion of the tumor tissue occupied by 4-HNE immunoreactive cells (NCI-H520 tumor mass; vs tumor xenograft control): 928.20%
- change in proportion of the tumor tissue occupied by CD31 immunoreactive cells (NCI-H520 tumor mass; vs tumor xenograft control): −41.30%
- change in proportion of the tumor tissue occupied by COX-2 immunoreactive cells (NCI-H520 tumor mass; vs tumor xenograft control): 6.37%
- change in proportion of the tumor tissue occupied by Ki-67 immunoreactive cells (NCI-H520 tumor mass; vs tumor xenograft control): −41.57%
- change in proportion of the tumor tissue occupied by NT immunoreactive cells (NCI-H520 tumor mass; vs tumor xenograft control): 368.85%
- change in proportion of the tumor tissue occupied by PARP immunoreactive cells (NCI-H520 tumor mass; vs tumor xenograft control): 673.85%
- change in proportion of the tumor tissue occupied by TNF-α immunoreactive cells (NCI-H520 tumor mass; vs tumor xenograft control): 417.98%
- change in proportion of the tumor tissue occupied by caspase-3 immunoreactive cells (NCI-H520 tumor mass; vs tumor xenograft control): 364.72%
- change in proportion of the tumor tissue occupied by iNOS immunoreactive cells (NCI-H520 tumor mass; vs tumor xenograft control): −11.83%
- change in proportion of the tumor tissue occupied by tumor cells (NCI-H520 tumor mass; vs tumor xenograft control): −30.68%
- Spleen Total thickness [1, 10]: 1097.00 ± 237.39a μm/central regions
- Spleen White pulp diameters [1, 10]: 334.72 ± 47.47e μm/white pulp
- Spleen White pulp numbers [1, 10]: 6.13 ± 1.81e /mm2
- Spleen absolute weight [1, 10]: 0.059 ± 0.010a
- Submandibular lymph node Cortex lymphoid cell follicle numbers [1, 10]: 7.50 ± 2.39a /mm2
- Submandibular lymph node Cortex thickness [1, 10]: 155.92 ± 34.47a μm/lymph node
- Submandibular lymph node Total thickness [1, 10]: 441.48 ± 114.06a μm/central regions
- Submandibular lymph node absolute weight [1, 10]: 0.003 ± 0.001a
- change in cortex lymphoid cell follicle numbers ([1]; vs tumor xenograft control): 15.38%
- change in submandibular lymph node total thickness ([1]; vs tumor xenograft control): −8.92%
- change in total splenic thickness ([1]; vs tumor xenograft control): −1.17%
- change in splenic absolute weight [1, 11]: −1.46%
- change in submandibular lymph node absolute weight [1, 11]: 4.00%
- BASO [2]: 1.11 ± 0.21%
- EOS [2]: 0.36 ± 0.24%
- HCT [2]: 34.06 ± 2.18a %
- HGB [2]: 14.87 ± 0.97a g/dl
- LYM [2]: 90.22 ± 0.91c %
- MCH [2]: 21.01 ± 1.93 pg
- MCHC [2]: 42.31 ± 4.13 g/dL
- MCV [2]: 49.81 ± 3.97 fL
- MONO [2]: 3.59 ± 0.83a %
- NEU [2]: 2.95 ± 0.87c %
- PLT [2]: 760.00 ± 143.30 K/μL
- RBC [2]: 6.30 ± 0.35c M/μL
- RET [2]: 0.43 ± 0.37 ea/1000
- WBC [2]: 7.50 ± 0.49e K/μL
- change in the viability of NCI-H520 cells vs vehicle control (NCI-H520 cells; gefitinib 0.001 μM): −3.29%
- change in the viability of NCI-H520 cells vs vehicle control (NCI-H520 cells; gefitinib 0.01 μM): −7.47%
- change in the viability of NCI-H520 cells vs vehicle control (NCI-H520 cells; gefitinib 0.1 μM): −17.73%
- change in the viability of NCI-H520 cells vs vehicle control (NCI-H520 cells; gefitinib 1 μM): −29.55%
- change in the viability of NCI-H520 cells vs vehicle control (NCI-H520 cells; gefitinib 5 μM): −53.53%
- change in the viability of NCI-H520 cells vs vehicle control (NCI-H520 cells; gefitinib 10 μM): −62.71%
- change in the viability of NCI-H520 cells vs vehicle control (NCI-H520 cells; gefitinib 50 μM): −71.11%
- Mortality, Days of treatment Periods (Day 0~27) ([3]; male, ICR (CrljOri:CD1[ICR])): 0
- Clinical signs: Any abnormal signs [3, 12]: 0/7 (0%)
- Clinical signs: Normal appearance [3, 12]: 7/7 (100%)
- Mortality, At termination (at end of 28 days of administration) [3, 12]: 0
- Mortality, Total [3, 12]: 0/7 (0%)
- Body weight gain, Day 0~Day 14 [3]: 6.53 ± 0.65
- Body weight gain, Day 0~Day 28 [3]: 3.26 ± 0.57b
- Body weight gain, Day 14~Day 27 [3]: 1.80 ± 0.62
- change in peritoneal NK cell activity [4]: −4.12%
- change in splenic NK cell activity [4]: −6.16%
- change in SOD activity in the liver tissue [5]: −81.18%
- change in content of GSH in the liver tissue [5]: −69.14%
- change in liver lipid peroxidation [5]: 129.64%
- change in serum IFN-γ content [6]: −0.62%
- change in serum IL-6 content [6]: 2.09%
- Splenic Interleukin-1β content [7, 10]: 7.82 ± 2.32 days
- Splenic Interleukin-10 content [7, 10]: 23.39 ± 12.60a
- change in content of splenic IL-1β [7, 11]: −3.08%
- change in content of splenic IL-10 [7, 11]: −7.27%
- change in content of splenic TNF-α [7, 11]: −4.79%
- Body weight gains ([8]; NCI-H520 xenograft nude mice, 35 days, based on actual body weight): −0.40 ± 1.01ac g
- Body weights At first administration ([8]; NCI-H520 xenograft nude mice, baseline): 18.15 ± 1.42 g
- Actual body weights (excluding tumor weight) [8, 10]: 17.75 ± 1.11ac g
- Body weights At sacrifice [8, 10]: 19.08 ± 1.14ac g
- Periovarian fat pad White adipocyte diameters [8, 10]: 13.52 ± 3.46 μm
- Periovarian fat pad absolute weight [8, 10]: 0.008 ± 0.002e
- change in accumulated periovarian fat pad thickness ([8]; vs tumor xenograft control): −11.13%
- change in average periovarian white fat pad cell diameter ([8]; vs tumor xenograft control): 4.41%
- change in periovarian fat pad absolute weight [8, 11]: −1.52%
- change in actual body weight excluding the tumor weight ([8]; vs tumor xenograft control, final sacrifice date): −8.18%
